The text below walks through data of paper PMC3410622 (2012).

The test deals with glutamate carboxypeptidase II (GCPII) (Homo sapiens, UniProt Q04609). The class given is biochemical.
glutamate carboxypeptidase II (GCPII), sequence (Q04609 whole entry): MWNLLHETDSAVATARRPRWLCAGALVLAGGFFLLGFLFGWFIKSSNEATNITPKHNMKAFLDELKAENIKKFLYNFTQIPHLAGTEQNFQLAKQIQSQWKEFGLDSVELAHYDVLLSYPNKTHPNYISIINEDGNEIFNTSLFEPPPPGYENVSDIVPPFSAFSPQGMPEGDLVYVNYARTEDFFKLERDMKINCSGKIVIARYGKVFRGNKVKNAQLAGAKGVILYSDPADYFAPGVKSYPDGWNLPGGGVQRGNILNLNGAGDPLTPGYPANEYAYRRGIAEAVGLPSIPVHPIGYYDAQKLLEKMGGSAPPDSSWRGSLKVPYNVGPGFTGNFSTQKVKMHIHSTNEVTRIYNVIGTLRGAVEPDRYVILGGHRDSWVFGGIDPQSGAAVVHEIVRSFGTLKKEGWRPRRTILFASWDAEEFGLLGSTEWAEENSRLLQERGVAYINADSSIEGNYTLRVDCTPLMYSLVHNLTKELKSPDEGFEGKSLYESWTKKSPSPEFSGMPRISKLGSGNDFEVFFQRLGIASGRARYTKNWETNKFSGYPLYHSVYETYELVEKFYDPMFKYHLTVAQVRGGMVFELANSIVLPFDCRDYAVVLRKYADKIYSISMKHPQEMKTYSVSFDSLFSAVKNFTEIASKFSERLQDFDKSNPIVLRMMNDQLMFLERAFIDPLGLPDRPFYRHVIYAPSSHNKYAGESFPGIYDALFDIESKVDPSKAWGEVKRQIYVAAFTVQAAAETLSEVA

As a reminder, the Ki is the dissociation constant of the complex between target and ligand, obtained from inhibition or displacement. A low value points to higher affinity. `CCC[C@H](NC(=O)N[C@@H](CCC(=O)O)C(=O)O)C(=O)O` [ZJ44, N-[[[(1S)-1-Carboxy-3-methylpropyl]amino]carbonyl]-L-glutamic acid] yielded a Ki of 39.4 ± 2.9 nM.
